Results reported in ChEMBL document CHEMBL5325510, “Vincamine, from an antioxidant and a cerebral vasodilator to its anticancer potential” (Bioorg Med Chem, 2023).

Assays:
A549 = experiment: Cytotoxicity against human A549 cells assessed as reduction in cell viability measured after 48 hrs by MTT assay; format: functional, cell-based; conditions: A549, 48 h
B16 = experiment: Cytotoxicity against mouse B16 cells assessed as reduction in cell viability measured after 96 hrs by microplate reader based MTT assay; format: functional
HEp-2 = experiment: Cytotoxicity against human HEp-2 cells assessed as reduction in cell growth; format: functional, cell-based
KB = experiment: Cytotoxicity against human KB cells assessed as cell growth inhibition incubated for 48 hrs by MTT assay; format: functional, cell-based

In the case of CC[C@]12CCCN3CCc4c(n(c5ccccc45)[C@@](O)(C(=O)OC)C1)[C@@H]32 [VINCAMINE], the IC50 (A549) is reported as 310 µM, the IC50 (B16) is reported as 68.9 µM and the IC50 (HEp-2) is reported as 274 µM. It also gave an IC50 (KB) of 232 µM.
